The record followed here is article PMC7503500, “A Structure-Activity Relationship Comparison of Imidazodiazepines Binding at Kappa, Mu, and Delta Opioid Receptors and the GABAA Receptor” (Molecules, 2020).

For assay [1], the system named is synaptic benzodiazepine-sensitive receptors (BZR), GABAAR. The assay is described as follows: 3H-flunitrazepam binding, rat brain homogenate. Particulars: for BZR % (percent inhibition): at 10,000 nM; for Ki: read-out: BZR (Ki).
In assay [2] the target is µ opioid receptor (MOR) (Homo sapiens, UniProt P35372). The assay is described as follows: Radioligand competition binding, MOR ([3H]-DAMGO), HEK293 cell homogenates. Particulars: [3H]-DAMGO; for inhibition at 10 µM: read-out: MOR % (percent inhibition), at 10,000 nM; for MOR % (percent inhibition): at 10,000 nM. A general note: Displacement assays read how much labelled ligand stays bound in the presence of the test substance.

For assay [3], the target named is δ opioid receptor (DOR) (Homo sapiens, UniProt P41143). The assay is described as follows: Radioligand competition binding, DOR ([3H]-DADLE), HEK293 cell homogenates. Particulars: for inhibition at 10 µM: read-out: DOR % (percent inhibition), at 10,000 nM; for DOR % (percent inhibition): at 10,000 nM.
Assay [4] concerns the target κ opioid receptor (KOR) (Homo sapiens, UniProt P41145). The assay is described as follows: Radioligand competition binding, KOR ([3H]-U69593), HEK293 cell homogenates. To be noted: for inhibition at 10 µM: read-out: KOR % (percent inhibition), at 10,000 nM; for inhibition at 10 µM / KOR % (percent inhibition): [3H]-U69593; for KOR % (percent inhibition): at 10,000 nM.
[5] abbreviates: read-out: KOR (Ki), [3H]-U69593, HEK293 homogenates.

SMILES strings stand for the structures. “Also recorded” adds a separate entry of the source. Like-named read-outs stand apart in the source and are kept apart here.

Turning to `C[C@H]1N=C(c2ccccc2F)c2cc(Br)ccc2-n2cnc(C(=O)O)c21` [GL-II-93], in assay [1], the “BZR % (percent inhibition)” value worked out at 73%. Further, in assay [1], the Ki – broadly, a dissociation constant, usually derived from enzyme kinetics or from competition with a known ligand – came out at 86 nM. The inhibition at 10 µM in assay [2], in assay [3] and in assay [4] was 0% each time. In addition, the “KOR affinity (in words)” value in assay [4] (screening at 10,000 nM) was “No KOR affinity; also recorded: insignificant KOR affinity”.

Turning to `C[C@H]1N=C(c2ccccc2F)c2cc(Br)ccc2-n2cnc(-c3cnco3)c21` [GL-III-36], in assay [1], the “BZR % (percent inhibition)” value came to 86% and the inhibition constant Ki worked out at 319 nM. Also, the “MOR % (percent inhibition)” value in assay [2] stood at 0%. For the same compound, the “DOR % (percent inhibition)” value in assay [3] was found to be 12%. The “KOR % (percent inhibition)” value in assay [4] was 88%. Further, the Ki in assay [4] (setting [5]) turned out to be 246 nM.

Consider `CCOC(=O)c1ncn2c1[C@@H](C)N=C(c1ccccc1F)c1cc(C3CC3)ccc1-2` [GL-III-42], for which, in assay [1], the “BZR % (percent inhibition)” value turned out to be 62% and the inhibitory constant (Ki) is 726 nM. In addition, the “MOR % (percent inhibition)” value in assay [2] is on record as 0%. Also, in assay [3], the “DOR % (percent inhibition)” value was found to be 13%. Also, in assay [4], the inhibition – broadly, the percentage by which the read-out fell short of the control – at 10 µM was found to be 86%.

For `C[C@H]1N=C(c2ccccc2F)c2cc(Cl)ccc2-n2cnc(C(=O)O)c21` [GL-III-54], the “BZR % (percent inhibition)” value in assay [1] came to 100%. For the same compound, the Ki in assay [1] is 42 nM. The inhibition at 10 µM worked out at 0% in assay [2], 0% in assay [3] and 22% in assay [4].

For the compound `Cc1noc(-c2ncn3c2[C@@H](C)N=C(c2ccccc2F)c2cc(Br)ccc2-3)n1` [GL-III-60], in assay [1], the “BZR % (percent inhibition)” value came out at 100% and the inhibition constant Ki worked out at 784 nM. Moreover, the “MOR % (percent inhibition)” value in assay [2] stood at 26%. The “DOR % (percent inhibition)” value in assay [3] was 18%. For the same compound, the “KOR % (percent inhibition)” value in assay [4] is 87%. Besides, the inhibition constant Ki in assay [4] (setting [5]) stood at 232 nM.

For `Cc1noc(-c2ncn3c2[C@@H](C)N=C(c2ccccc2F)c2cc(C4CC4)ccc2-3)n1` [GL-III-63], in assay [1], the “BZR % (percent inhibition)” value is 28%. Further, the “MOR % (percent inhibition)” value in assay [2] stood at 8%. Further, the “DOR % (percent inhibition)” value in assay [3] was determined as 31%. Also, the “KOR % (percent inhibition)” value in assay [4] came to 78%. In assay [4] (setting [5]), the Ki was 678 nM.

As to `Cc1noc(-c2ncn3c2[C@@H](C)N=C(c2ccccn2)c2cc(C4CC4)ccc2-3)n1` [GL-III-64], in assay [1], the “BZR % (percent inhibition)” value was found to be 92% and the Ki was 1490 nM. In addition, the “MOR % (percent inhibition)” value in assay [2] is listed as 7%. Besides, the “DOR % (percent inhibition)” value in assay [3] is 14%. In addition, the “KOR % (percent inhibition)” value in assay [4] is on record as 60%. Further, in assay [4] (setting [5]), the Ki stood at 2050 nM.

As for `C#Cc1ccc2c(c1)C(c1ccccc1F)=N[C@H](C)c1c(C(=O)NC(C)C)ncn1-2` [GL-III-66], the “BZR % (percent inhibition)” value in assay [1] was 88%. The Ki in assay [1] came out at 271 nM; in assay [4], 233 nM. The figures for the inhibition at 10 µM in assay [2], in assay [3] and in assay [4] were 0%, 0% and 63%, respectively.

As for `CCNC(=O)c1ncn2c1[C@@H](C)N=C(c1ccccc1F)c1cc(C3CC3)ccc1-2` [GL-III-68], the “BZR % (percent inhibition)” value in assay [1] is 100%. The inhibition constant Ki was 452 nM in assay [1] and 150 nM in assay [4]. Also, the inhibition at 10 µM in assay [2] was 0%; in assay [3] it was 10%; in assay [4] it was 88%.

With `C[C@H]1N=C(c2ccccc2F)c2cc(Br)ccc2-n2cnc(C(=O)N(C)C)c21` [GL-III-69], the “BZR % (percent inhibition)” value in assay [1] amounted to 100%. Besides, the values for the Ki in assay [1] and in assay [4] were 446 nM and 511 nM, respectively. Moreover, the inhibition at 10 µM was found to be 0% in assay [2], 10% in assay [3] and 75% in assay [4].

`C[C@H]1N=C(c2ccccc2F)c2cc(C3CC3)ccc2-n2cnc(C(=O)N(C)C)c21` [GL-III-70]: the “BZR % (percent inhibition)” value in assay [1] came out at 100%. Besides, the inhibition constant Ki is 3400 nM in assay [1] and 800 nM in assay [4]. Also, the inhibition at 10 µM in assay [2] is 0%; in assay [3], 50%; in assay [4], 68%.
